Key:
[1] = system: Farnesyl diphosphate synthase (Sus scrofa); assay: Relative yield of the product (3b) derived from the compound with DMAPP in the enzymatic reaction catalyzed by FPP synthase from porcine liver; ND = Not detected
[2] = system: Farnesyl diphosphate synthase (Sus scrofa); assay: Relative yield of the product (4b) derived from the compound with DMAPP in the enzymatic reaction catalyzed by FPP synthase from porcine liver
[3] = target: T1, Farnesyl diphosphate synthase (Geobacillus stearothermophilus) (UniProt Q08291); assay: (§1) Relative yield of the product (3b) derived from the compound with DMAPP in the enzymatic reaction catalyzed by FPP synthase from Bacillus stearothermophilus; format: functional
T1 sequence (whole entry): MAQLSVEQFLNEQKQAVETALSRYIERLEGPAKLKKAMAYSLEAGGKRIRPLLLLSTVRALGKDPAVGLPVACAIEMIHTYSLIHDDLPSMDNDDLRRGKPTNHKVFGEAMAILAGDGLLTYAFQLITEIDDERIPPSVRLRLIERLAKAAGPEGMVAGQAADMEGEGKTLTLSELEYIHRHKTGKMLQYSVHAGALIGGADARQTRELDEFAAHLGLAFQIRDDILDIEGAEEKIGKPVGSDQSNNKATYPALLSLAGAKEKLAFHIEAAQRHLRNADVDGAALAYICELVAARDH

[4] = system: Farnesyl diphosphate synthase (Sus scrofa); assay: Relative yield of the product (4b') derived from the compound with GPP in the enzymatic reaction catalyzed by FPP synthase from porcine liver
[5] = target: T1, Farnesyl diphosphate synthase (Geobacillus stearothermophilus); assay: Relative yield of the product (4b) derived from the compound with DMAPP in the enzymatic reaction catalyzed by FPP synthase from Bacillus stearothermophilus; format: functional
[6] = system: Farnesyl diphosphate synthase (Aves); assay: Relative yield of the product (4b') derived from the compound with GPP in the enzymatic reaction catalyzed by FPP synthase from avian liver
[7] = target: T1, Farnesyl diphosphate synthase (Geobacillus stearothermophilus); assay: Relative yield of the product (4b') derived from the compound with GPP in the enzymatic reaction catalyzed by FPP synthase from Bacillus stearothermophilus; format: functional
[8] = system: Farnesyl diphosphate synthase (Aves); assay: Relative yield of the product (3b) derived from the compound with DMAPP in the enzymatic reaction catalyzed by FPP synthase from avian liver
[9] = system: Farnesyl diphosphate synthase (Aves); assay: Relative yield of the product (4b) derived from the compound with DMAPP in the enzymatic reaction catalyzed by FPP synthase from avian liver
[10] = system: Geobacillus stearothermophilus; assay: Relative yield of the product (4c) derived from the compound with GPP in the enzymatic reaction catalyzed by FPP synthase from Bacillus stearothermophilus; format: functional
Sus scrofa [11] = species on record: Sus scrofa; assay: Relative yield of the product (4c) derived from the compound with GPP in the enzymatic reaction catalyzed by FPP synthase from porcine liver; format: functional
Aves [12] = assay: Relative yield of the product (3c) derived from the compound with DMAPP in the enzymatic reaction catalyzed by FPP synthase from avian liver; format: functional
[13] = system: Geobacillus stearothermophilus; assay: Relative yield of the product (3c) derived from the compound with DMAPP in the enzymatic reaction catalyzed by FPP synthase from Bacillus stearothermophilus; format: functional
Sus scrofa [14] = species on record: Sus scrofa; assay: Relative yield of the product (3c) derived from the compound with DMAPP in the enzymatic reaction catalyzed by FPP synthase from porcine liver; format: functional
Aves [15] = assay: Relative yield of the product (4c) derived from the compound with GPP in the enzymatic reaction catalyzed by FPP synthase from avian liver; ND = Not detected; format: functional
[16] = system: Geobacillus stearothermophilus; assay: Relative yield of the product (4d) derived from the compound with GPP in the enzymatic reaction catalyzed by FPP synthase from B. stearothermophilus; ND = Not detected; format: functional
Sus scrofa [17] = species on record: Sus scrofa; assay: Relative yield of the product (3b) derived from the compound with DMAPP in the enzymatic reaction catalyzed by FPP synthase from porcine liver; ND = Not detected; format: functional, organism-based
Aves [18] = assay: Relative yield of the product (4d) derived from the compound with DMAPP in the enzymatic reaction catalyzed by FPP synthase from avian liver; ND = Not detected; format: functional
Aves [19] = assay: Relative yield of the product (3b) derived from the compound with DMAPP in the enzymatic reaction catalyzed by FPP synthase from avian liver; ND = Not detected; format: functional
[20] = system: Geobacillus stearothermophilus; assay: as §1; format: functional
Sus scrofa [21] = species on record: Sus scrofa; assay: Relative yield of the product (4d) derived from the compound with DMAPP in the enzymatic reaction catalyzed by FPP synthase from porcine liver; ND = Not detected; format: functional

In the case of C=C(CC)CCOP(=O)(O)OP(=O)(O)O, the Production [1] is reported as “Not detected”, the Production [2] is reported as 10% and the Production [3] is reported as 68%. For the same compound, the Production [4] was 27%, the Production [5] was 40% and the Production [6] was 25%. The Production [7] was 48%, the Production [8] was 1% and the Production [9] was 6.7%.
Work on C=C(CCC)CCOP(=O)(O)OP(=O)(O)O yielded a Production [10] of 10%, a Production (Sus scrofa [11]) of 1.8% and a Production (Aves [12]) of 1%. The Production [13] was 29%, the Production (Sus scrofa [14]) was 1.4% and the Production (Aves [15]) was “Not detected”.
With C=C(CCCC)CCOP(=O)(O)OP(=O)(O)O the Production [16] was “Not detected”, the Production (Sus scrofa [17]) was “Not detected” and the Production (Aves [18]) was “Not detected”. The Production (Aves [19]) was “Not detected”, the Production [20] was 4% and the Production (Sus scrofa [21]) was “Not detected”.

Source: ChEMBL document CHEMBL1130582, “Substrate specificity of thermostable farnesyl diphosphate synthase with alkyl group homologs of isopentenyl diphosphate” (1998)
